Tests used:
[1] = test system: purified T cells from C57BL/6 mice stimulated with bone marrow-derived BALB/c DCs; test: Allogeneic T cell proliferation assay (3H-thymidine incorporation, IFN-γ ELISA); format: cell-based, mouse; conditions: for alloreactive T cell proliferation compared to media alone: WT BALB/c DCs + C57BL/6 T cells, 72 h then 3H-thymidine 16 h, HS 100 μg/mL, HSP70 5 μg/mL, C12-iE-DAP 1 μg/mL, L18-MDP 1 μg/mL
Protocol: Cells were co-cultured either alone (media) or in the presence of LPS (100 ng/mL), Pam3CSK4 (2 μg/mL), hyaluronan (HA) (100 μg/mL), sonicated-HA (sHA) (100 μg/mL), fibronectin (FN) (100 μg/mL), fibrinogen (Fbn) (100 μg/mL), heparan sulfate (HS) (100 μg/mL), HSP70 (5 μg/mL), HMGB1 (1 μg/mL), C12-iE-DAP (1 μg/mL), or L18-MDP (1 μg/mL) for 72 hours, and then pulsed ^3H-thymidine for 16 hours. Proliferation was determined by ^3H incorporation and results are expressed as cpm±SEM. Baseline alloreactivity is indicated by the dotted line; *p<0.05 compared with media alone. […] Results are representative of three independent experiments.
T cell proliferation assay: DCs were generated from bone marrow as previously described. (Yang, Y. (2004) Nat. Immunol. 5:508-15). CD3^+ T cells were isolated from B6 mice using a CD3 negative selection magnetic bead kit (Invitrogen, Carlsbad, United States). Proliferation assays were performed as previously described. (Brennan, T. V. et al. (2008) Transplantation 85:247-55).
Purified T cells from C57BL/6 mice were stimulated with bone marrow-derived DCs from BALB/c mice and their proliferation was measured by the incorporation of ^3H-thymidine. DAMPs tested included proteins—fibronectin (FN), fibrinogen (Fbn), heat shock protein 70 (HSP70), and high-mobility group protein B1 (HMGB1); and glucosaminoglycans—heparan sulfate (HS) and hyaluronan (HA). For comparison, two well-described PAMPs, lipopolysaccharide (LPS) and a synthetic tripalmitoylated lipopeptide (Pam3CSK4) that are ligands of the TLR4 homodimer and the TLR1/2 heterodimer, respectively, were tested. As nucleotide-binding domain, leucine-rich repeat containing receptors (NLRB) are another family of innate immune receptors, ligands of NLR1 (C12-iE-DAP) and NLR2 (L18-MDP) were further tested.
Next, to investigate whether HS enhanced proliferation of allogeneic T cells was due to the stimulation of TLRs on DCs or T cells, because MyD88 is a common adaptor protein involved in the signal transduction of all TLRs with the exception of TLR3^9, HS was tested against DCs or T cells that were deficient for MyD88. For this purpose, T cells from WT or MyD88^−/− C57BL/6 mice were stimulated with DCs from WT or MyD88^−/− BALB/c mice in an allogeneic proliferation assay in the presence of HS, LPS, Pam3CSK4, or media alone.
HS has been shown as a TLR4 ligand, (Johnson, G. B. et al., (2002) J. Immunol. 168:5233-39; Johnson, G. B., Brunn, G. J. & Platt, J. L. (2004) J. Immunol. 172:20-24). To determine whether the absence of TLR4 expression on stimulating DCs would reduce HS-induced alloreactive T cell proliferation equivalent to MyD88 deficiency, purified T cells from C57BL/6 mice were co-cultured with irradiated WT, TLR4^−/−, and MyD88^−/− BALB/c DCs and proliferation was measured by the incorporation of ^3H-thymidine.
Cytokine analysis: Cell culture supernatants were obtained from DC cultures or T cell proliferation assays and assayed for IL-6, IL-12 and IFN-γ by ELISA (BD Biosciences) according to the manufacturer's standard protocols. HEK 293 supernatants were tested for human IL-8 by ELISA (BioLegend, San Diego, United States).
Allogenic heart transplants were performed between C57BL/6 donors and (BALB/c x DBA.1)F1 recipients. Serum HS was measured by ELISA Immunohistologic staining for HS and CD3 was performed on heart tx tissue. Bone marrow derived dendritic cells (DCs) and purified T cells from WT-, MyD88- or TLR4-deficient mice were used in MLR assays to test for proliferation and cytokine production in response to HS. CD40 and CD80 expression on stimulated DCs was measured by FACS. T cell proliferation was determined by ^3H-thymidine incorporation and CFSE dye dilution assay. HEK293 NF-kB-luciferase reporter cell lines stably expressing CD14, MD2, and TLR4 or TLR2 were used in assays of HS activity.

[2] = test system: C57BL/6 recipients of C3H.SW TCD-BM and LCs (GVHD); test: Second GVHD model (C3H.SW→C57BL/6); format: in vivo, mouse; conditions: A1AT 2 mg i.p. every 3 days; p=0.032
Protocol: FIG. 7A is a graph showing serum HS concentrations at the indicated time points following Allo-HSCT (B10.D2→BALB/c; 1×10^7 B10.D2 TCD-BM and 5×10^6 B10.D2 LC) treated with A1AT (2 mg) or PBS every 3 days by i.p. injection, starting 1 day prior to transplantation; n=3 per data point, as determined by ELISA assay; *p<0.05. FIG. 7B is a graph showing survival and FIG. 7C is a graph showing GVHD clinical score of Allo-BM only (n=5) or Allo-BM+LC treated with A1AT (n=8) or PBS (n=5). Data is from one of two independent experiments with identical results. […] Survival of BALB/c recipients of Allo-BM+LC from B10.D2 donors (n=11) and TLR4^−/− BALB/c recipients of Allo-BM+LC from B10.D2 donors administered A1AT (n=8) or PBS (n=14) every 3 days by intraperitoneal injection, starting 1 day prior to transplantation.
In another model of acute GVHD, 5×10^6 lymph node cells and 1×10^7 TCD BM from C3H.SW were transferred to C57BL/6 recipients irradiated with 10 Gy. HSCT recipients of these two GVHD models then received either intraperitoneal (i.p.) injections of 2 mg of al-antitrypsin (A1AT, Aralast™, Baxter, Deerfield, United States) resuspended in 200 μL sterile phosphate-buffered saline (PBS), subcutaneous (s.c.) injections of 20 mg/kg PG545 (Progen Pharmaceuticals Limited, Queensland, Australia) in 200 μL PBS, or 200 μL PBS alone at the indicated intervals. […]

[3] = test system: BALB/c recipients of B10.D2 Allo-BM+LC (GVHD); test: Murine Allo-HSCT model of GVHD (B10.D2→BALB/c); format: in vivo, mouse
Protocol: BALB/c recipient of B10.D2 Allo-BM+LC were treated with subcutaneous injections of the HS mimetic, PG545 (20 mg/kg in PBS), or PBS control once weekly, beginning 1 day prior to Allo-HSCT. […] FIG. 9C is a graph showing survival analysis of Allo-BM+LC+PG545 (n=10) compared to Allo-BM+LC+PBS (n=10).
Antibodies and flow cytometry: Anti-CD40 (HM40-3), anti-CD80 (16-10A1), anti-Thy1.1 (OX-7), anti-Ly5.1 (A20) anti-IFN-γ (XMG1.2), rat IgG1 isotype (R3-34), and the BrdU Flow Kit (FITC-labeled) were from BD Biosciences (San Jose, Calif., USA). Intracellular IFN-γ staining was performed as previously described. […] For in vivo BrdU labeling, mice were injected with 50 μg BrdU/gm i.p. 1 hour prior to analysis. Collection of flow cytometric data was acquired using a FACSCanto (BD Biosciences), and events were analyzed using FloJo software (Tree Star, Inc., Ashland, United States). […]
Allo-HSCT: For Allo-HSCT, wild-type (WT) and TLR4−/− BALB/c mice received myeloablative total-body irradiation (8.5 Gy) followed by intravenous infusion of 1×10^7 B10.D2 or BALB/c T-cell depleted bone marrow (TCD-BM). […] To induce GVHD, 5×10^6 lymph node cells from inguinal, axillary, cervical and mesenteric lymph nodes of B10.D2 or BALB/c mice were injected intravenously in addition to TCD-BM.
In another model of acute GVHD, 5×10^6 lymph node cells and 1×10^7 TCD BM from C3H.SW were transferred to C57BL/6 recipients irradiated with 10 Gy. HSCT recipients of these two GVHD models then received either intraperitoneal (i.p.) injections of 2 mg of al-antitrypsin (A1AT, Aralast™, Baxter, Deerfield, United States) resuspended in 200 μL sterile phosphate-buffered saline (PBS), subcutaneous (s.c.) injections of 20 mg/kg PG545 (Progen Pharmaceuticals Limited, Queensland, Australia) in 200 μL PBS, or 200 μL PBS alone at the indicated intervals.
In this model, lethally irradiated BALB/c mice were transplanted with 1×10^7 T cell-depleted bone marrow (TCD-BM) and 5×10^6 lymphocytes (LCs) from B10.D2 mice (Allo-BM+LC). Control mice received B10.D2 TCD-BM only (Allo-BM only) or syngeneic BALB/c TCD-BM and 5×10^6 BALB/c LCs (Syn-BM+LC).

BALB/c DCs = test: DC maturation: surface expression of CD40 and CD80 by FACS; format: cell-based, mouse; conditions: 24 h; HS 100 μg/mL, Pam3CSK4 2 μg/mL
Protocol: FIG. 3A is a graph showing WT, TLR4^−/−, or MyD88^−/− BALB/c DCs (2×10^5/well) were stimulated with LPS (100 ng/mL), HS (100 μg/mL), or Pam3CSK4 (2 μg/mL), or left unstimulated (media) for 24 hours, and measured for surface expression of co-stimulatory molecules CD40 and CD80 by FACS analysis. FIGS. 3B and 3C are graphs showing WT, MyD88^−/−, and TLR4^−/− BALB/c cultured DCs were co-cultured with media alone, LPS, HS, or Pam3CSK4 as in (A) and culture supernatants were tested for IL-6 (B) and IL-12 (C) by ELISA. Data are representative of three independent experiments; *p<0.05 compared with media alone.
To investigate how activation of DCs by HS promoted the alloreactive T cell response, an as DC maturation and production of pro-inflammatory cytokines are key initial events in triggering adaptive immune responses, the ability of HS to upregulate DC expression of costimulatory molecules, CD40 and CD80, and pro-inflammatory cytokines, IL-6 and IL-12 was tested.
Antibodies and flow cytometry: Anti-CD40 (HM40-3), anti-CD80 (16-10A1), anti-Thy1.1 (OX-7), anti-Ly5.1 (A20) anti-IFN-γ (XMG1.2), rat IgG1 isotype (R3-34), and the BrdU Flow Kit (FITC-labeled) were from BD Biosciences (San Jose, Calif., USA). Intracellular IFN-γ staining was performed as previously described. (Brennan, T. V. et al. (2008) Transplantation 85:247-55). For in vivo BrdU labeling, mice were injected with 50 μg BrdU/gm i.p. 1 hour prior to analysis. Collection of flow cytometric data was acquired using a FACSCanto (BD Biosciences), and events were analyzed using FloJo software (Tree Star, Inc., Ashland, United States).

[4] = splenocytes six days after transplantation, vs PBS

CCCCCCCCCCCC(=O)N[C@H](CCC(=O)NC(CCCC(N)C(=O)O)C(=O)O)C(=O)O (some centres unmarked) [C12-iE-DAP, reference compound]
alloreactive T cell proliferation compared to media alone [1]: Neither of the NLR ligands tested produced a significant increase

A1AT: α1-antitrypsin (Aralast, Baxter), serum serine protease inhibitor
survival compared with PBS treated group [2]: significant survival benefit | GVHD pathology scores (ear skin) ([3]; 3 weeks post-transplant, vs PBS): significantly lower | survival (MST) ([3]; A1AT 2 mg i.p. every 3 days, PBS controls 28.0, p<0.001): 48.5 days | GVHD clinical score curve ([3]; Allo-BM+LC recipients, 10-point scale, p=0.03): significantly lower | survival in TLR4−/− recipients compared to PBS treated TLR4−/− mice ([3]; TLR4−/− BALB/c recipients of B10.D2 Allo-BM+LC, p=0.30): no further survival benefit | serum HS levels compared to PBS ([3]; days 9 and 14 following HSCT, A1AT 2 mg i.p. every 3 days from 1 day prior to transplant): significantly lower | BrdU incorporation by donor Thy1.1+ T cells [3, 4]: significantly reduced | IFN-γ production by donor Thy1.1+ T cells [3, 4]: significantly reduced

Pam3CSK4 [reference compound]
upregulation of CD40 and CD80 on MyD88−/− DCs (BALB/c DCs): but not on MyD88^−/− DCs | upregulation of CD40 and CD80 on TLR4−/− DCs (BALB/c DCs): able to upregulate | upregulation of CD40 and CD80 on WT DCs (BALB/c DCs): able to upregulate

polymyxin B [PMB, reference compound]
effect on LPS-induced proliferation ([1]; PMB 10 ug/mL, LPS 100 ng/mL): significant decrease

CC(C)CCC[C@@H](C)[C@H]1CC[C@H]2[C@@H]3CC[C@H]4C[C@@H](O[C@@H]5O[C@H](COS(=O)(=O)O)[C@@H](O[C@H]6O[C@H](COS(=O)(=O)O)[C@@H](O[C@H]7O[C@H](COS(=O)(=O)O)[C@@H](O[C@H]8O[C@H](COS(=O)(=O)O)[C@@H](OS(=O)(=O)O)[C@H](OS(=O)(=O)O)[C@H]8OS(=O)(=O)O)[C@H](OS(=O)(=O)O)[C@H]7OS(=O)(=O)O)[C@H](OS(=O)(=O)O)[C@H]6OS(=O)(=O)O)[C@H](OS(=O)(=O)O)[C@H]5OS(=O)(=O)O)CC[C@]4(C)[C@H]3CC[C@]12C [PG545, reference compound]
post-transplant serum HS levels compared to PBS ([3]; PG545 20 mg/kg s.c. once per week from one day prior to transplant): higher | rate of GVHD (survival analysis) ([3]; PG545 20 mg/kg s.c. weekly, PBS 29, p<0.001): 21 days | percentage of proliferating donor CD8 T cells (BrdU uptake) ([3]; post-transplant day 6, PG545 20 mg/kg s.c. weekly, PBS 12.9±2.0, n=3, p<0.05): 23.2±2.3

HSP70: heat shock protein 70 (Assay Designs), a DAMP [reference compound]
alloreactive T cell proliferation compared to media alone [1]: significantly increased
